Measured values taken from ChEMBL document CHEMBL1201862, “PubChem BioAssay data set” (2004).
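Cultured in 96-well plates, cells were exposed to test compound for 48 hours across five concentrations. At the GI50, growth is halved.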 Activity calls are given as the source filed them. No stated cut-off is given here; in the data, active = GI50 up to about 1.1 µM and inactive = higher.

Legend:
Assay in all cases: growth of human tumour cells (NCI), 48 h
TK-10 = tested on: TK-10
U-251 = tested on: U-251
OVCAR-4 = tested on: OVCAR-4
HCT-15 = tested on: HCT-15
UACC-62 = tested on: UACC-62
SK-MEL-2 = tested on: SK-MEL-2
ACHN = tested on: ACHN
SR = tested on: SR
OVCAR-5 = tested on: OVCAR-5
NCI/ADR-RES = tested on: NCI/ADR-RES
A498 = tested on: A498
OVCAR-8 = tested on: OVCAR-8
MDA-MB-231 = tested on: MDA-MB-231
K562 = tested on: K562
SW-620 = tested on: SW-620
UACC-257 = tested on: UACC-257
SNB-19 = tested on: SNB-19
COLO 205 = tested on: COLO 205
Malme-3M = tested on: Malme-3M
SK-MEL-5 = tested on: SK-MEL-5

| Structure (SMILES) | GI50 (TK-10) | GI50 (U-251) | GI50 (OVCAR-4) | GI50 (HCT-15) | GI50 (UACC-62) | GI50 (SK-MEL-2) | GI50 (ACHN) | GI50 (SR) | GI50 (OVCAR-5) | GI50 (NCI/ADR-RES) | GI50 (A498) | GI50 (OVCAR-8) | GI50 (MDA-MB-231) | GI50 (K562) | GI50 (SW-620) | GI50 (UACC-257) | GI50 (SNB-19) | GI50 (COLO 205) | GI50 (Malme-3M) | GI50 (SK-MEL-5) |
| --- | --- | --- | --- | --- | --- | --- | --- | --- | --- | --- | --- | --- | --- | --- | --- | --- | --- | --- | --- | --- |
| Nc1ccc(C2(c3ccc(N)cc3)C3CC4CC(C3)CC2C4)cc1 | 18 µM (inactive) | 18.3 µM (inactive) | 14.3 µM (inactive) | 14.6 µM | 16.3 µM (inactive) | 18.5 µM (inactive) | 18.7 µM (inactive) | 14.5 µM (inactive) | 15.8 µM (inactive) | 0.0792 µM (active) | 21 µM (inactive) | 7.73 µM (inactive) | 17.4 µM (inactive) | 10.3 µM (inactive) | 11.4 µM (inactive) | 19.2 µM (inactive) | 14.6 µM (inactive) | – | – | – |
| Cc1c2cc[n+](C)cc2c(C)c2c1[nH]c1ccc(O)cc12 [ELLIPTINIUM ACETATE] | 68.2 µM (inactive) | 1.32 µM (inactive) | 38.3 µM (inactive) | 50.4 µM | 15.3 µM (inactive) | 66.2 µM (inactive) | – | – | 71.9 µM (inactive) | 61.7 µM (inactive) | 52.5 µM (inactive) | 11.6 µM (inactive) | 50.9 µM (inactive) | 16.9 µM (inactive) | 14 µM (inactive) | 64 µM (inactive) | 0.904 µM (active) | 21.8 µM (inactive) | 1.75 µM (inactive) | 7.89 µM (inactive) |
| Cn1ccc(C(=O)NCCN(CCNC(=O)c2ccn(C)c(=O)c2O)CCNC(=O)c2ccn(C)c(=O)c2O)c(O)c1=O | > 100 µM (inactive) | > 100 µM (inactive) | > 100 µM (inactive) | > 100 µM | > 100 µM (inactive) | > 100 µM (inactive) | 74.6 µM (inactive) | > 100 µM (inactive) | 29.9 µM (inactive) | > 100 µM (inactive) | > 100 µM (inactive) | > 100 µM (inactive) | > 100 µM (inactive) | > 100 µM (inactive) | > 100 µM (inactive) | > 100 µM (inactive) | > 100 µM (inactive) | > 100 µM (inactive) | > 100 µM (inactive) | > 100 µM (inactive) |
| CCN1CCC(O)(/C=C/c2ccccc2C)C(C(=O)/C=C/c2ccccc2C)C1 (stereo not given) | 2.94 µM (inactive) | 2.34 µM (inactive) | 3.67 µM (inactive) | 1.56 µM | 2.97 µM (inactive) | 2.33 µM (inactive) | – | 2.72 µM (inactive) | 1.97 µM (inactive) | 3.65 µM (inactive) | 1.91 µM (inactive) | 2.71 µM (inactive) | 2.55 µM (inactive) | 3.07 µM (inactive) | 2.74 µM (inactive) | 2.9 µM (inactive) | – | 1.64 µM (inactive) | 4.08 µM (inactive) | 1.56 µM (inactive) |
| OCCOCn1nc(-c2ccccc2)nc1-c1cnccn1 | > 100 µM (inactive) | > 100 µM (inactive) | > 100 µM (inactive) | > 100 µM | > 100 µM (inactive) | – | – | > 100 µM (inactive) | > 100 µM (inactive) | > 100 µM (inactive) | – | > 100 µM (inactive) | > 100 µM (inactive) | > 100 µM (inactive) | > 100 µM (inactive) | > 100 µM (inactive) | > 100 µM (inactive) | > 100 µM (inactive) | – | > 100 µM (inactive) |
| Nc1ncnc2c1ncn2C=C=CCO | > 100 µM (inactive) | > 100 µM (inactive) | > 100 µM (inactive) | > 100 µM | – | > 100 µM (inactive) | – | > 100 µM (inactive) | > 100 µM (inactive) | > 100 µM (inactive) | > 100 µM (inactive) | > 100 µM (inactive) | > 100 µM (inactive) | > 100 µM (inactive) | > 100 µM (inactive) | > 100 µM (inactive) | > 100 µM (inactive) | > 100 µM (inactive) | > 100 µM (inactive) | > 100 µM (inactive) |
| O=C(O)C(C(=O)O)P(=S)(S)c1ccccc1 (stereo not given) | > 100 µM (inactive) | > 100 µM (inactive) | > 100 µM (inactive) | > 100 µM | > 100 µM (inactive) | > 100 µM (inactive) | > 100 µM (inactive) | > 73.5 µM (inactive) | > 100 µM (inactive) | > 100 µM (inactive) | > 100 µM (inactive) | > 100 µM (inactive) | > 100 µM (inactive) | > 100 µM (inactive) | > 100 µM (inactive) | > 100 µM (inactive) | > 100 µM (inactive) | > 100 µM (inactive) | > 100 µM (inactive) | > 31.6 µM (inactive) |
| NCCCCN(CCCN)Cc1ccccc1 | > 100 µM (inactive) | > 100 µM (inactive) | > 100 µM (inactive) | > 100 µM | > 100 µM (inactive) | > 100 µM (inactive) | > 100 µM (inactive) | – | > 100 µM (inactive) | > 100 µM (inactive) | > 100 µM (inactive) | > 100 µM (inactive) | > 100 µM (inactive) | > 100 µM (inactive) | > 100 µM (inactive) | > 100 µM (inactive) | > 100 µM (inactive) | > 100 µM (inactive) | – | > 100 µM (inactive) |
| c1ccc2c(c1)SC1Sc3ccccc3[S+]21 (stereo not given) | 18.4 µM (inactive) | 20.6 µM (inactive) | 41.3 µM (inactive) | > 49.9 µM | 17.2 µM (inactive) | 34.8 µM (inactive) | 14.1 µM (inactive) | – | 27 µM (inactive) | 19.9 µM (inactive) | 33.3 µM (inactive) | 21.5 µM (inactive) | 23.7 µM (inactive) | 6.07 µM (inactive) | 25.2 µM (inactive) | 17.3 µM (inactive) | > 81.1 µM (inactive) | 11.1 µM (inactive) | 2.98 µM (inactive) | 7.28 µM (inactive) |
| CCCCC1=C(Br)C(=C(Br)Br)OC1=O | – | 5.47 µM (inactive) | 1.79 µM (inactive) | 2.2 µM | 2.42 µM (inactive) | 2.79 µM (inactive) | – | – | 16.5 µM (inactive) | 4.14 µM (inactive) | 15.2 µM (inactive) | 3.17 µM (inactive) | – | 3.32 µM (inactive) | 3.34 µM (inactive) | 2.48 µM (inactive) | 7.89 µM (inactive) | 3.01 µM (inactive) | 2.25 µM (inactive) | 3.71 µM (inactive) |
| C(/C=N/c1ccccc1)=C(/Nc1ccccc1)C12CC3CC(CC(C3)C1)C2 | 21.4 µM (inactive) | 15 µM (inactive) | 16.3 µM (inactive) | 14.1 µM | 12.1 µM (inactive) | – | 13.6 µM (inactive) | 11 µM (inactive) | 15.2 µM (inactive) | 19.3 µM (inactive) | 23.8 µM (inactive) | 20.7 µM (inactive) | 16.3 µM (inactive) | 7.23 µM (inactive) | 14 µM (inactive) | 27.9 µM (inactive) | 17.2 µM (inactive) | 15.9 µM (inactive) | 18.5 µM (inactive) | 14.7 µM (inactive) |
| COC(=O)C1OC(Oc2cc(O)c3c(=O)cc(-c4ccc(O)cc4)oc3c2)C(O)C(O)C1O (stereo not given) | – | > 100 µM (inactive) | > 100 µM (inactive) | > 100 µM | > 100 µM (inactive) | > 100 µM (inactive) | – | – | > 100 µM (inactive) | > 100 µM (inactive) | > 100 µM (inactive) | > 100 µM (inactive) | – | > 100 µM (inactive) | > 100 µM (inactive) | > 100 µM (inactive) | > 100 µM (inactive) | > 100 µM (inactive) | > 100 µM (inactive) | > 100 µM (inactive) |
